Measured values from patent publication EP1082127B1 (WARNER-LAMBERT COMPANY LLC, priority 1998, dated 1999).

Legend:
ICE [1] = target: T1, ICE (Homo sapiens, UniProt P29466); assay: ICE inhibition, Ki determination (fluorogenic substrate Ac-Tyr-Val-Ala-Asp-AMC); format: biochemical; settings: 15 µM Ac-Tyr-Val-Ala-Asp-AMC, 0.5 nM enzyme, 30°C, reversible competitive model
T1 sequence (P29466 120-297 limits assumed): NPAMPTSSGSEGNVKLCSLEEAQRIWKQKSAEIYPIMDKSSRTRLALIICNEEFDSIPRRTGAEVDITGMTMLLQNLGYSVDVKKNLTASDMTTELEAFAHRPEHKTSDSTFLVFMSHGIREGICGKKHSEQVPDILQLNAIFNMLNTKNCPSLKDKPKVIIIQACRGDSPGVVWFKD
T1 sequence (P29466 317-404 limits assumed): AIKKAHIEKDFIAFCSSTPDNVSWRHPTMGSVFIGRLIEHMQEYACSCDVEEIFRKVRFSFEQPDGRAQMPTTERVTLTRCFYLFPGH
Procedure: Serial dilutions of each compound of the invention are prepared using an initial 8-fold dilution of a DMSO stock into HGE (100 mM HEPES, 20% glycerol v/v, 0.5 mM EDTA), followed by seven serial 2-fold dilutions into HGE + 12.5% DMSO. Ten microliters of diluted stocks or of vehicle (HGE + 12.5% DMSO) are placed in triplicate onto a 96-well microtiter plate. Enzyme is diluted into assay buffer (HGE, 5 mM DTT, 15 µM Ac-Tyr-Val-Ala-Asp-AMC; 0.5 nM final enzyme concentration, pre-warmed to 30°C), and this reaction mixture is added to the plate at 90 µL/well. Substrate hydrolysis is monitored for 300 seconds at 30°C using 385 and 460 nm excitation and emission filters, respectively. Triplicate curves are averaged, and slopes are evaluated by linear regression. To evaluate Ki, plots of percent inhibition vs inhibitor concentration are fit by non-linear regression to a reversible, competitive model: [formula] where the competition factor is (1 + [S]/KM) = 2.

ICE [2] = target: T1, ICE; assay: ICE Colorimetric Dose-Response (IC50) Assay; format: biochemical; settings: 60 minutes preincubation, 50 µM Ac-Tyr-Val-Ala-Asp-pNA, 25°C
Procedure: (§1) Diluted inhibitor stocks are prepared by two-fold serial dilution from a primary stock whose concentration is selected (based on screening results or on prior attempts at IC50 evaluation) to achieve approximately 95% inhibition in the most concentrated well. Aliquots of each dilution are transferred to a microtitre plate in triplicate.
(§2) ICE enzyme is diluted to approximately 24 nM in HGE buffer (100 mM Hepes pH 7.5, 0.5 mM EDTA, 20% glycerol, 0.1% Bovine Serum Albumin (BSA), and activated by adding dithiothreitol (DTT) to a final concentration of 5 mM. The activated enzyme is then aliquoted into wells containing inhibitor or vehicle, and the plate is preincubated for 60 minutes at ambient temperature. Substrate (Ac-Tyr-Val-Ala-Asp-pNA) is added to each well to a final concentration of 50 µM, and plates are placed in the microtitre plate-reader thermostated to 25°C. Beginning 5 minutes after addition of substrate, absorbance (405 nm) of wells is monitored for 1 hour, and activity is calculated as the mean rate of change in absorbance during this interval.

[3] = tested on: IL-1β production in human peripheral blood mononuclear cells (PBMCs); assay: PBMC Cellular Assay - IC50 Determinations (LPS-stimulated IL-1β production, ELISA); format: cell-based; settings: human PBMCs stimulated overnight with 10 ng/mL LPS, mature IL-1β by ELISA
Description: Further evidence that compounds of Formula I are inhibitors of ICE is provided by their ability to inhibit IL-1β production in human peripheral blood mononuclear cells (PBMCs) as described herein. PBMCs are isolated from heparinized blood by centrifugation over a ficoll cushion, then washed three times with phosphate-buffered saline. PBMCs are suspended in a medium containing RPMI 1640 with glutamine, penicillin, streptomycin, and 2% human AB serum, then plated at 10^6 cells per well in 96-well flat bottom plates. PBMCs are stimulated overnight with 10 ng/mL of lipopolysaccharide (LPS, E. coli strain 0111:B4; Calbiochem) in the presence or absence of a compound of Formula I. Medium is harvested, and the level of mature IL-1β was determined using an ELISA kit from R&D Systems. Cells were cultured for an additional 4 hours in the presence of 3-(4,5-dimethylthiazol-2-yl)-2,5-diphenyltetrazolium bromide (MTT) to determine viability.

Ich-2 enzyme = target: T2, Ich-2 enzyme (Homo sapiens, UniProt P49662); assay: Ich-2 Colorimetric Dose-Response (IC50) Assay; format: biochemical; settings: enzyme 64 nM, 60 µM Ac-Leu-Glu-Val-Asp-pNA; read-out: ICH2 IC50 (Caspase 4)
T2 sequence (P49662 81-270 limits assumed): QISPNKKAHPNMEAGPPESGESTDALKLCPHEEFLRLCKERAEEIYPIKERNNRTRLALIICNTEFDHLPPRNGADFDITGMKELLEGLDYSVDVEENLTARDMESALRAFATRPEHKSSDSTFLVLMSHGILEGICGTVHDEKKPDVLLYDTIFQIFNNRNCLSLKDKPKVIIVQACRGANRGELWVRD
T2 sequence (P49662 290-377 limits assumed): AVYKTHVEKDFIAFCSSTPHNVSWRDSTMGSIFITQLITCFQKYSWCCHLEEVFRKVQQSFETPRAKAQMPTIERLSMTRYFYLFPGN
Procedure: as §1, §2
Inhibition of Ich-2 enzyme is assayed as described above for ICE, except that enzyme is used at 64 nM, and 60 µM of the Ich-2-specific substrate Ac-Leu-Glu-Val-Asp-pNA is used instead of the ICE substrate Ac-Tyr-Val-Ala-Asp-pNA.

Compound	Ki (ICE [1]) [µM]	IC50 (ICE [2]) [µM]	IC50 (Ich-2 enzyme) [µM]	IC50 [3] [µM]
CC(C)C(CC(=O)NCCCc1ccc2ccccc2n1)C(=O)NC(CC(=O)O)C(=O)CNS(=O)(=O)CC12CCC(CC1=O)C2(C)C (stereo not shown) [Example 27, 5-(7,7-Dimethyl-2-oxo-bicyclo[2.2.1]hept-1-ylmethanesulfonylamino)-3-{3-methyl-2-[(3-quinolin-2-yl-propylcarbamoyl)-methyl]-butyrylamino}-4-oxo-pentanoic acid]	0.0175	0.147	9.93	1
CC(C)C(CC(=O)NCCc1cn(C)c2ccccc12)C(=O)NC(CC(=O)O)C(=O)CNS(=O)(=O)CC12CCC(CC1=O)C2(C)C (stereo not shown) [Example 31, 5-(7,7-Dimethyl-2-oxo-bicyclo[2.2.1]hept-1-ylmethanesulfonylamino)-3-(3-methyl-2-{[2-(1-methyl-1H-indol-3-yl)-ethylcarbamoyl]-methyl}-butyrylamino)-4-oxo-pentanoic acid]	0.0004	0.0059	1.24	0.24
CC(C)C(CC(=O)NCCc1ccccc1)C(=O)NC(CC(=O)O)C(=O)CNS(=O)(=O)CC12CCC(CC1=O)C2(C)C (stereo not shown) [Example 3, 5-(7,7-Dimethyl-2-oxo-bicyclo[2.2.1]hept-1-ylmethanesulfonylamino)-3-[3-methyl-2-(phenethylcarbamoyl-methyl)-butyrylamino]-4-oxo-pentanoic acid]	0.045	0.4	4.65	3
CC(C)[C@H](CC(=O)NCCn1cnc2cc(Cl)c(Cl)cc21)C(=O)NC(C=O)CC(=O)O (stereo partly shown) [Example 56, 3-(2-{[2-(5,6-Dichloro-benzoimidazol-1-yl)-ethylcarbamoyl]-methyl}-3-methyl-butyrylamino)-4-oxo-butyric acid]	0.0044	0.0286	4.02	3.25
CC(C)C(CC(=O)NCCCc1ccccc1)C(=O)NC(CC(=O)O)C(=O)CNS(=O)(=O)CC12CCC(CC1=O)C2(C)C (stereo not shown) [Example 12, 5-(7,7-Dimethyl-2-oxo-bicyclo[2.2.1]hept-1-ylmethanesulfonylamino)-3-{3-methyl-2-[(3-phenyl-propylcarbamoyl)-methyl]-butyrylamino}-4-oxo-pentanoic acid]	0.0128	0.061	1.71	1.2
CC(C)[C@H](CC(=O)NCCc1cn(C)c2ccccc12)C(=O)NC(CC(=O)O)C(=O)CNS(=O)(=O)CC12CCC(CC1)C2(C)C (stereo partly shown) [Example 25]	0.0058	0.0483	3.54	1.1
CC(C)C(CC(=O)NCCc1ccccc1)C(=O)NC(CC(=O)O)C(=O)CNS(=O)(=O)CC12CCC(CC1)C2(C)C (stereo not shown) [Example 6, 5-(7,7-Dimethyl-bicyclo[2.2.1]hept-1-ylmethanesulfonylamino)-3-[3-methyl-2-(phenethylcarbamoyl-methyl)-butyrylamino]-4-oxo-pentanoic acid]	0.142	1.06	9.59	3.25
CC(C)C(CC(=O)NCCCc1cccnc1)C(=O)NC(CC(=O)O)C(=O)CNS(=O)(=O)CC12CCC(CC1=O)C2(C)C (stereo not shown) [Example 29, 5-(7,7-Dimethyl-2-oxo-bicyclo[2.2.1]hept-1-ylmethanesulfonylamino)-3-{3-methyl-2-[(3-pyridin-3-yl-propylcarbamoyl)-methyl]-butyrylamino}-4-oxo-pentanoic acid]	0.0245	0.113	4.79	1.9
CC(C)C(CC(=O)NCCn1cnc2ccccc21)C(=O)NC(CC(=O)O)C(=O)CNS(=O)(=O)CC12CCC(CC1=O)C2(C)C (stereo not shown) [Example 30, 3-{2-[(2-Benzoimidazol-1-yl-ethylcarbamoyl)-methyl]-3-methyl-butyrylamino}-5-(7,7-dimethyl-2-oxo-bicyclo[2.2.1]hept-1-ylmethanesulfonylamino)-4-oxo-pentanoic acid]	0.0011	0.0052	3.14	0.41

Continued by falling Ki (ICE [1]), values first:

Ki (ICE [1]) [µM]	IC50 (ICE [2]) [µM]	IC50 (Ich-2 enzyme) [µM]	Compound	IC50 [3] [µM]
0.0332	0.0566	10.4	CC(C)C(CC(=O)NCCn1ncc2ccccc21)C(=O)NC(C=O)CC(=O)O (stereo not shown) [Example 59, 3-{2-[(2-Indazol-1-yl-ethylcarbamoyl)-methyl]-3-methyl-butyrylamino}-4-oxo-butyric acid]	3.75
0.0266	0.136	9.91	CC(C)C(CC(=O)NCCCc1ccncc1)C(=O)NC(CC(=O)O)C(=O)CNS(=O)(=O)CC12CCC(CC1=O)C2(C)C (stereo not shown) [Example 26, 5-(7,7-Dimethyl-2-oxo-bicyclo[2.2.1]hept-1-ylmethanesulfonylamino)-3-{3-methyl-2-[(3-pyridin-4-yl-propylcarbamoyl)-methyl]-butyrylamino}-4-oxo-pentanoic acid]	2
0.026	0.458	14.1	CC(C)C(CC(=O)NCCc1ccncc1)C(=O)NC(CC(=O)O)C(=O)CNS(=O)(=O)CC12CCC(CC1=O)C2(C)C (stereo not shown) [Example 32, 5-(7,7-Dimethyl-2-oxo-bicyclo[2.2.1]hept-1-ylmethanesulfonylamino)-3-{3-methyl-2-[(2-pyridin-4-yl-ethylcarbamoyl)-methyl]-butyrylamino}-4-oxo-pentanoic acid]	3.3
0.0207	0.36	8.66	CC(C)C(CC(=O)NCCCc1ccccc1)C(=O)NC(CC(=O)O)C(=O)CNS(=O)(=O)CC12CCC(CC1)C2(C)C (stereo not shown) [Example 24, 5-(7,7-Dimethyl-bicyclo[2.2.1]hept-1-ylmethanesulfonylamino)-3-{3-methyl-2-[(3-phenyl-propylcarbamoyl)-methyl]-butyrylamino}-4-oxo-pentanoic acid]	1.6
0.0092	0.468	12.7	Cc1cc2ncn(CCN(C)C(=O)CC(C(=O)NC(C=O)CC(=O)O)C(C)C)c2cc1C (stereo not shown) [Example 60, 3-[2-({[2-(5,6-Dimethyl-benzoimidazol-1-yl)-ethyl]-methylcarbamoyl}-methyl)-3-methyl-butyrylamino]4-oxo-butyric acid]	5
0.0079	0.037	11.5	CC(C)C(CC(=O)NCCc1cn(C)c2ccc(F)cc12)C(=O)NC(C=O)CC(=O)O (stereo not shown) [Example 55, 3-(2-{[2-(5-Fluoro-1-methyl-1H-indol-3-yl)-ethylcarbamoyl]-methyl}-3-methyl-butyrylamino)-4-oxo-butyric acid]	5.3
0.004	0.037	11.1	CC(C)C(CC(=O)NCCc1cn(C)c2ccccc12)C(=O)NC(C=O)CC(=O)O (stereo not shown) [Example 54, 3-(3-Methyl-2-{[2-(1-methyl-1H-indol-3-yl)-ethylcarbamoyl]-methyl}-butyrylamino)-4-oxo-butyric acid]	2.85
